# Reference: patent US20210032257A1, “(E)-1-(4-(DIMETHYLAMINO)BUT-2-ENOYL)PYRROLIDIN-3-YL 4-((3-ISOPROPYL-5-METHYLPYRAZOLO[1,5-A]PYRIMIDIN-7-YL)AMINO)PIPERIDINE-1-CARBOXYLATE FOR INHIBITING CDK7” (Eli Lilly and Company, priority 2017, published 2021)
# Key:
# Assay in all cases: Biomarker study proliferation (CellTiter-Glo)
# Format in all cases: cell-based
# 22RV1 = system: 22RV1
# Procedure, shortened: (§1)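 Profiling across cell lines annotated for ARID1A, KMT2C, KMT2D or RB1 alterations used CellTiter-Glo viability after 7 days' treatment. Responses were classed insensitive, cytostatic or cytotoxic using IC50 1 μM and 70% inhibition cut-offs.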
# DMS114 = system: DMS114
# Procedure, shortened: as §1
# EVSAT = system: EVSAT
# Procedure, shortened: as §1
# HCC4006 = system: HCC4006
# Procedure, shortened: as §1
# HEC1A = system: HEC1A
# Procedure, shortened: as §1
# HUH1 = system: HUH1
# Procedure, shortened: as §1
# HUH28 = system: HUH28
# Procedure, shortened: as §1
# K562 = system: K562
# Procedure, shortened: as §1
# KURAMOCHI = system: KURAMOCHI
# Procedure, shortened: as §1
# MDAMB231 = system: MDAMB231
# Procedure, shortened: as §1
# MKN7 = system: MKN7
# Procedure, shortened: as §1
# MOLT4 = system: MOLT4
# Procedure, shortened: as §1
# NCIH2196 = system: NCIH2196
# Procedure, shortened: as §1
# NUGC4 = system: NUGC4
# Procedure, shortened: as §1
# RT112 = system: RT112
# Procedure, shortened: as §1
# Raw264.7 = system: Raw264.7
# Procedure, shortened: as §1
# SAOS2 = system: SAOS2
# Procedure, shortened: as §1
# SNU1196 = system: SNU1196
# Procedure, shortened: as §1
# SNU16 = system: SNU16
# Procedure, shortened: as §1
# [1] = 168 h, read-out: Anti-proliferation effect IC50
compound,measurement,setting,value
"Cc1cc(NC2CCN(C(=O)O[C@H]3CCN(C(=O)/C=C/CN(C)C)C3)CC2)n2ncc(C(C)C)c2n1 [Example 1, [(3S)-1-[(E)-4-(dimethylamino)but-2-enoyl]pyrrolidin-3-yl] 4-[(3-isopropyl-5-methyl-pyrazolo[1,5-a]pyrimidin-7-yl)amino]piperidine-1-carboxylate]",Anti-proliferation effect % Inh.,"22RV1; 22RV1, PROSTATE, 7 days",77%
same,Anti-proliferation effect Outcome,"22RV1; 22RV1, PROSTATE, 7 days",Cytotoxic (cytotoxic (IC50<1 μM and % inhibition ≥70%))
same,IC50,"22RV1; Homo sapiens, 22Rv1, 168 h, read-out: Anti-proliferation effect IC50",28 nM
same,Anti-proliferation effect % Inh.,"DMS114; DMS114, LUNG, 7 days",65%
same,Anti-proliferation effect Outcome,"DMS114; DMS114, LUNG, 7 days",Cytostatic (cytostatic (IC50<1 μM and % inhibition <70%))
same,IC50,"DMS114; Homo sapiens, DMS-114, 168 h, read-out: Anti-proliferation effect IC50",14 nM
same,Anti-proliferation effect % Inh.,"EVSAT; EVSAT, BREAST, 7 days",79%
same,Anti-proliferation effect Outcome,"EVSAT; EVSAT, BREAST, 7 days",Cytotoxic (cytotoxic (IC50<1 μM and % inhibition ≥70%))
same,IC50,"EVSAT; Homo sapiens, EVSA-T, 168 h, read-out: Anti-proliferation effect IC50",40 nM
same,Anti-proliferation effect % Inh.,"HCC4006; HCC4006, LUNG, 7 days",57%
same,Anti-proliferation effect Outcome,"HCC4006; HCC4006, LUNG, 7 days",Cytostatic (cytostatic (IC50<1 μM and % inhibition <70%))
same,IC50,"HCC4006; Homo sapiens, HCC4006, 168 h, read-out: Anti-proliferation effect IC50",28 nM
same,Anti-proliferation effect % Inh.,"HEC1A; HEC1A, ENDOMETRIUM, 7 days",56%
same,Anti-proliferation effect Outcome,"HEC1A; HEC1A, ENDOMETRIUM, 7 days",Cytostatic (cytostatic (IC50<1 μM and % inhibition <70%))
same,IC50,"HEC1A; Homo sapiens, HEC-1-A, 168 h, read-out: Anti-proliferation effect IC50",162 nM
same,Anti-proliferation effect % Inh.,"HUH1; HUH1, LIVER, 7 days",72%
same,Anti-proliferation effect Outcome,"HUH1; HUH1, LIVER, 7 days",Cytotoxic (cytotoxic (IC50<1 μM and % inhibition ≥70%))
same,IC50,"HUH1; Homo sapiens, HuH-1, 168 h, read-out: Anti-proliferation effect IC50",128 nM
same,IC50,HUH28; [1],2900 nM
same,Anti-proliferation effect % Inh.,"HUH28; HUH28, BILIARY, 7 days",32%
same,Anti-proliferation effect Outcome,"HUH28; HUH28, BILIARY, 7 days",Insensitive (insensitive (IC50≥1 μM))
same,IC50,"K562; Homo sapiens, K562, 168 h, read-out: Anti-proliferation effect IC50",> 10 µM
same,Anti-proliferation effect % Inh.,"K562; K562, BLOOD, 7 days",−191%
same,Anti-proliferation effect Outcome,"K562; K562, BLOOD, 7 days",Insensitive (insensitive (IC50≥1 μM))
same,IC50,KURAMOCHI; [1],52 nM
same,Anti-proliferation effect % Inh.,"KURAMOCHI; KURAMOCHI, OVARY, 7 days",88%
same,Anti-proliferation effect Outcome,"KURAMOCHI; KURAMOCHI, OVARY, 7 days",Cytotoxic (cytotoxic (IC50<1 μM and % inhibition ≥70%))
same,IC50,"MDAMB231; Homo sapiens, MDA-MB-231, 168 h, read-out: Anti-proliferation effect IC50",2820 nM
same,Anti-proliferation effect % Inh.,"MDAMB231; MDAMB231, BREAST, 7 days",23%
same,Anti-proliferation effect Outcome,"MDAMB231; MDAMB231, BREAST, 7 days",Insensitive (insensitive (IC50≥1 μM))
same,IC50,"MKN7; Homo sapiens, MKN-7, 168 h, read-out: Anti-proliferation effect IC50",> 10 µM
same,Anti-proliferation effect % Inh.,"MKN7; MKN7, STOMACH, 7 days",39%
same,Anti-proliferation effect Outcome,"MKN7; MKN7, STOMACH, 7 days",Insensitive (insensitive (IC50≥1 μM))
same,IC50,"MOLT4; Homo sapiens, MOLT-4, 168 h, read-out: Anti-proliferation effect IC50",40 nM
same,Anti-proliferation effect % Inh.,"MOLT4; MOLT4, BLOOD, 7 days",99%
same,Anti-proliferation effect Outcome,"MOLT4; MOLT4, BLOOD, 7 days",Cytotoxic (cytotoxic (IC50<1 μM and % inhibition ≥70%))
same,IC50,"NCIH2196; Homo sapiens, NCI-H2196, 168 h, read-out: Anti-proliferation effect IC50",123 nM
same,Anti-proliferation effect % Inh.,"NCIH2196; NCIH2196, LUNG, 7 days",63%
same,Anti-proliferation effect Outcome,"NCIH2196; NCIH2196, LUNG, 7 days",Cytostatic (cytostatic (IC50<1 μM and % inhibition <70%))
same,IC50,"NUGC4; Homo sapiens, NUGC-4, 168 h, read-out: Anti-proliferation effect IC50",19 nM
same,Anti-proliferation effect % Inh.,"NUGC4; NUGC4, STOMACH, 7 days",83%
same,Anti-proliferation effect Outcome,"NUGC4; NUGC4, STOMACH, 7 days",Cytotoxic (cytotoxic (IC50<1 μM and % inhibition ≥70%))
same,IC50,"RT112; Homo sapiens, RT-112, 168 h, read-out: Anti-proliferation effect IC50",32 nM
same,Anti-proliferation effect % Inh.,"RT112; RT112, URINARY, 7 days",87%
same,Anti-proliferation effect Outcome,"RT112; RT112, URINARY, 7 days",Cytotoxic (cytotoxic (IC50<1 μM and % inhibition ≥70%))
same,IC50,"Raw264.7; Mus musculus, RAW264.7, 168 h, read-out: Anti-proliferation effect IC50",355 nM
same,Anti-proliferation effect % Inh.,"Raw264.7; Raw264.7, 7 days",62%
same,Anti-proliferation effect Outcome,"Raw264.7; Raw264.7, 7 days",Cytostatic (cytostatic (IC50<1 μM and % inhibition <70%))
same,IC50,"SAOS2; Homo sapiens, SAOS-2, 168 h, read-out: Anti-proliferation effect IC50",28 nM
same,Anti-proliferation effect % Inh.,"SAOS2; SAOS2, BONE, 7 days",66%
same,Anti-proliferation effect Outcome,"SAOS2; SAOS2, BONE, 7 days",Cytostatic (cytostatic (IC50<1 μM and % inhibition <70%))
same,IC50,SNU1196; [1],43 nM
same,Anti-proliferation effect % Inh.,"SNU1196; SNU1196, BILIARY, 7 days",68%
same,Anti-proliferation effect Outcome,"SNU1196; SNU1196, BILIARY, 7 days",Cytostatic (cytostatic (IC50<1 μM and % inhibition <70%))
same,IC50,"SNU16; Homo sapiens, SNU-16, 168 h, read-out: Anti-proliferation effect IC50",17 nM
same,Anti-proliferation effect % Inh.,"SNU16; SNU16, STOMACH, 7 days",84%
same,Anti-proliferation effect Outcome,"SNU16; SNU16, STOMACH, 7 days",Cytotoxic (cytotoxic (IC50<1 μM and % inhibition ≥70%))
